# ChEMBL document CHEMBL1142381, “Design, synthesis, and biological evaluation of (hydroxyphenyl)naphthalene and -quinoline derivatives: potent and selective nonsteroidal inhibitors of 17beta-hydroxysteroid dehydrogenase type 1 (17beta-HSD1) for the treatment of estrogen-dependent diseases” (J Med Chem, 2008)
# Experiments:
# [1] = biological target: T1, 17-beta-hydroxysteroid dehydrogenase type 1 (Homo sapiens) (UniProt P14061); experiment: Inhibition of human recombinant 17beta-HSD1 expressed in Sf9 insect cells at 100 nM
# T1 sequence (whole entry): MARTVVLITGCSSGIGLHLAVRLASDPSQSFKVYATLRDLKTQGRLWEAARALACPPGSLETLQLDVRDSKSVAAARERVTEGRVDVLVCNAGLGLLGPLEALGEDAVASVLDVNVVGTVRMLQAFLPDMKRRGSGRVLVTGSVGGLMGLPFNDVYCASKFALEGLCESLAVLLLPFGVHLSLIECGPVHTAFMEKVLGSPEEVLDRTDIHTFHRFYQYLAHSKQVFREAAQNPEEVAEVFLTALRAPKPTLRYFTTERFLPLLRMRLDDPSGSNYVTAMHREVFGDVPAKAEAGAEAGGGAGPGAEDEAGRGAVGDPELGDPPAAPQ
# [2] = biological target: T1, 17-beta-hydroxysteroid dehydrogenase type 1 (Homo sapiens); experiment: Inhibition of human recombinant 17beta-HSD1 expressed in Sf9 insect cells at 1 uM
# [3] = biological target: T2, 17-beta-hydroxysteroid dehydrogenase type 1 (Homo sapiens, UniProt P14061); experiment: Inhibition of human placental 17beta-HSD1
# T2 sequence (P14061 whole entry): T1 sequence (whole entry)
# [4] = biological target: Estrogen receptor beta (Homo sapiens) (UniProt Q92731); experiment: Displacement of [3H]estradiol from human recombinant ERbeta relative to estradiol
# Estrogen receptor beta (Homo sapiens), sequence (Q92731 whole entry): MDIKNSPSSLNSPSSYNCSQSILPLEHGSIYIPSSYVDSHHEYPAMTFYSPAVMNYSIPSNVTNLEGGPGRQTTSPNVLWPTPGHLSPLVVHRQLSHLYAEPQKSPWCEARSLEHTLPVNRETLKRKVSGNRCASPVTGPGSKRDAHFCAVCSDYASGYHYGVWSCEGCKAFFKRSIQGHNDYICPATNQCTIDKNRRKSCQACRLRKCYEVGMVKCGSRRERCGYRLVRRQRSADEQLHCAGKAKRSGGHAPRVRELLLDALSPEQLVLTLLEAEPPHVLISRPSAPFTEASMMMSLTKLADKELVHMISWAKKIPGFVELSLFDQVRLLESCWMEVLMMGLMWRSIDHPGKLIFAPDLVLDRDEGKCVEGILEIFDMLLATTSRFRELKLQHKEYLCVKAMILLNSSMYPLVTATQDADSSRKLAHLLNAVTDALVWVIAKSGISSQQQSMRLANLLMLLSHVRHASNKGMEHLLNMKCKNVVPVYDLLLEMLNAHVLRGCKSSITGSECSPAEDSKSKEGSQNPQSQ
# Homo sapiens = organism: Homo sapiens; experiment: Selectivity ratio for human placental 17beta-HSD1 over human placental 17beta-HSD2
# [5] = biological target: T3, 17-beta-hydroxysteroid dehydrogenase type 2 (Homo sapiens, UniProt P37059); experiment: Inhibition of human placental 17beta-HSD2
# T3 sequence (P37059 whole entry): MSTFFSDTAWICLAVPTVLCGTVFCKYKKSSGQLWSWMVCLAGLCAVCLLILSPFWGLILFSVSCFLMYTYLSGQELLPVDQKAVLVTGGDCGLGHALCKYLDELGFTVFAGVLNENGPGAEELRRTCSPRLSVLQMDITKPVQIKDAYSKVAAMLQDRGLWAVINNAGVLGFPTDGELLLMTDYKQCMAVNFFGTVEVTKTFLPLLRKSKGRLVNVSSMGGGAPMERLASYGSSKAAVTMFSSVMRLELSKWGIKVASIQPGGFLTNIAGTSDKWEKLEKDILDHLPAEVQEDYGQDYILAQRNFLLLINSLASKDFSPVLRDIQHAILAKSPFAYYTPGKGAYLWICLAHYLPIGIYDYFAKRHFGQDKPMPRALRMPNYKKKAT
# [6] = biological target: T4, Estrogen receptor (Homo sapiens) (UniProt P03372); experiment: Displacement of [3H]estradiol from human recombinant ERalpha relative to estradiol
# T4 sequence (whole entry): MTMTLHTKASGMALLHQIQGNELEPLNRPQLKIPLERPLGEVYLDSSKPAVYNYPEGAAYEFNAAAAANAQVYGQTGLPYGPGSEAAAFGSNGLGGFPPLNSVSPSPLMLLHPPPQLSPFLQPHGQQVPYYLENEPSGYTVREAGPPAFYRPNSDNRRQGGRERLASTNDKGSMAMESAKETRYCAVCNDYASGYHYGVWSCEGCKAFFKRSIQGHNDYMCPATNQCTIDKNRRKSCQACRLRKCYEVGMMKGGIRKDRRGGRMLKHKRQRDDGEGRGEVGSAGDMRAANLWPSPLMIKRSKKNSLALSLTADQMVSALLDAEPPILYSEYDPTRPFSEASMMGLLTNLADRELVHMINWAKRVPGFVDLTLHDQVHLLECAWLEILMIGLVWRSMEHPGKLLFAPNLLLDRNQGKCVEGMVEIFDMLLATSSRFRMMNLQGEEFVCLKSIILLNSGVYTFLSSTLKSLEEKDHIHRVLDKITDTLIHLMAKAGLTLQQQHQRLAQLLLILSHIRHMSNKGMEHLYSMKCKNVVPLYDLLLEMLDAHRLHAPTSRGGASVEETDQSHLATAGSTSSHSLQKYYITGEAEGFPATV
# [7] = Apparent permeability across human Caco-2 cell membrane; format: ADME, cell-based
SMILES,inhibition [1],inhibition [2],also measured
O=C(O)c1ccc(-c2ccc3cc(O)ccc3c2)cc1,< 10%,< 10%,–
Oc1ccc(-c2cnc3cc(O)ccc3c2)cc1,< 10%,< 10%,–
Oc1ccc2cc(-c3cccnc3)ccc2c1,< 10%,32%,–
OCc1cccc(-c2ccc3cc(O)ccc3c2)c1,< 10%,< 10%,–
CC(=O)Nc1cccc(-c2ccc3cc(O)ccc3c2)c1,< 10%,19%,–
O=C1CCCc2cc(-c3cccc(O)c3)ccc21,< 10%,23%,–
Oc1cccc(-c2cnc3cc(O)ccc3c2)c1,24%,57%,–
Oc1cccc(-c2ccc3cc(O)ccc3n2)c1,14%,63%,–
C[C@]12CC[C@@H]3c4ccc(O)cc4CC[C@H]3[C@@H]1CC(CCCCCCCCC(=O)OC[C@H]1O[C@@H](n3cnc4c(N)ncnc43)[C@H](O)[C@@H]1O)[C@@H]2O (stereo partly drawn),–,–,IC50 [3]: 52 nM
O=[N+]([O-])c1cccc(-c2ccc3cc(O)ccc3c2)c1,< 10%,< 10%,–
Oc1ccc2cc(-c3ccccc3)ccc2c1,< 10%,< 10%,–
Oc1ccc2cc(-c3ccsc3)ccc2c1,< 10%,< 10%,–
Oc1cncc(-c2ccc3cc(O)ccc3c2)c1,30%,58%,RBA [4]: 1%; Ratio IC50 (Homo sapiens): > 8; IC50 [5]: > 10000 nM; IC50 [3]: 1230 nM; RBA [6]: 0.01%
Oc1cccc(-c2ccc3ccccc3c2)c1,26%,61%,RBA [4]: 0.01%; Ratio IC50 (Homo sapiens): 1.8; IC50 [5]: 4010 nM; IC50 [3]: 2260 nM; RBA [6]: 0.01%
Oc1cccc(-c2ccc3cc(O)ccc3c2)c1,–,–,RBA [4]: 0.8%; Papp [7]: 8.9 ×10⁻⁶ cm/s; IC50 [3]: 116 nM; RBA [6]: 0.2%
Oc1ccc(-c2ccc3c(O)cccc3c2)cc1,–,–,RBA [4]: 5%; Ratio IC50 (Homo sapiens): 0.1; IC50 [5]: 302 nM; IC50 [3]: 2420 nM; RBA [6]: 5%
Oc1ccc(-c2cnc3ccccc3c2)cc1,< 10%,< 10%,–
OCc1ccc(-c2ccc3cc(O)ccc3c2)cc1,< 10%,13%,–
Oc1ccc2cc(-c3ccccc3O)ccc2c1,< 10%,< 10%,–
Oc1cccc(-c2ccc3ccc(O)cc3c2)c1,16%,62%,–
Oc1cccc(-c2cc3cc(O)ccc3[nH]2)c1,< 10%,< 10%,–
Oc1ccc2cc(-c3cccs3)ccc2c1,< 10%,< 10%,–
Oc1ccc(-c2ccc3cc(O)ccc3c2)cc1,< 10%,< 10%,–
O=C(O)c1cccc(-c2ccc3cc(O)ccc3c2)c1,36%,76%,–
Oc1cccc(-c2cnc3ccccc3c2)c1,< 10%,18%,–
Nc1cccc(-c2ccc3cc(O)ccc3c2)c1,< 10%,< 10%,–
Oc1cccc(-c2ccc3c(O)cccc3c2)c1,< 10%,23%,–
